These results are taken from ChEMBL document CHEMBL5550200, “Back-Pocket Optimization of 2-Aminopyrimidine-Based Macrocycles Leads to Potent EPHA2/GAK Kinase Inhibitors” (J Med Chem, 2024).

Assay [1] has as its target Vascular endothelial growth factor receptor 1 (Homo sapiens, UniProt P17948). Put plainly: Induction of stabilization of recombinant FLT1 (unknown origin) assessed as change in melting temperature by differential scanning fluorimetry assay. A general note: DSF heats the sample and reads unfolding from a dye or from intrinsic fluorescence.
A further assay has as its target Ephrin type-A receptor 2 (Homo sapiens, UniProt P29317).
Assay [2] deals with T1, Ephrin type-B receptor 1 (Homo sapiens) (UniProt P54762).
T1 sequence (whole entry): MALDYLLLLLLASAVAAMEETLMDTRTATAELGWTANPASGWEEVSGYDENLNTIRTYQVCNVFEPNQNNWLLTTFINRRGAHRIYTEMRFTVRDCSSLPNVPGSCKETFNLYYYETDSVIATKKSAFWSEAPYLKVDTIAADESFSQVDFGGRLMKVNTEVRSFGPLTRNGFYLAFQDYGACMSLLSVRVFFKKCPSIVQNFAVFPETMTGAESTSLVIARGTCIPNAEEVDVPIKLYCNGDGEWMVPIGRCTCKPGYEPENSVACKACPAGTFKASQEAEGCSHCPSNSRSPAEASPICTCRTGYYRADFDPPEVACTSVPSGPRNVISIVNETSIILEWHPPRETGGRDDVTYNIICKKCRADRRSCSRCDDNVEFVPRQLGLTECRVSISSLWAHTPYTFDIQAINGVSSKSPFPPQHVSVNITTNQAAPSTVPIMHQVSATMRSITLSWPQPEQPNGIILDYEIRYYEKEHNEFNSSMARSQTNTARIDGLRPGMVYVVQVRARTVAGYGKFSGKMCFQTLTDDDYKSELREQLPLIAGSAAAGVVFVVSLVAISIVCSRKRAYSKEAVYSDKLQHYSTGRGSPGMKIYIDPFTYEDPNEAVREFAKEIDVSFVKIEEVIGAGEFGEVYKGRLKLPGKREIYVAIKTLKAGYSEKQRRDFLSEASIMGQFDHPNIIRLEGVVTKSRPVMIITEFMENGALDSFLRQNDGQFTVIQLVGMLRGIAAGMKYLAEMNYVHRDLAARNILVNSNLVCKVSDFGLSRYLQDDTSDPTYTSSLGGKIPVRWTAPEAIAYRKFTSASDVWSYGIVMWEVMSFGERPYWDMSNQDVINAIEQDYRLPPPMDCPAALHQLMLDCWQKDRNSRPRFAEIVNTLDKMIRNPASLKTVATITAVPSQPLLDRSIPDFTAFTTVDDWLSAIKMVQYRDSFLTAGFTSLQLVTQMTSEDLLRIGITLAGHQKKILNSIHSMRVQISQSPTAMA
As to the kind of experiment: Induction of stabilization of recombinant EPHB1 (unknown origin) assessed as change in melting temperature by differential scanning fluorimetry assay.

Assay [3] has as its target Ephrin type-A receptor 7 (Homo sapiens) (UniProt Q15375). Put plainly: Induction of stabilization of recombinant EPHA7 (unknown origin) assessed as change in melting temperature by differential scanning fluorimetry assay.
The target in assay [4] is T2, Cyclin-G-associated kinase (Homo sapiens) (UniProt O14976).
T2 sequence (whole entry): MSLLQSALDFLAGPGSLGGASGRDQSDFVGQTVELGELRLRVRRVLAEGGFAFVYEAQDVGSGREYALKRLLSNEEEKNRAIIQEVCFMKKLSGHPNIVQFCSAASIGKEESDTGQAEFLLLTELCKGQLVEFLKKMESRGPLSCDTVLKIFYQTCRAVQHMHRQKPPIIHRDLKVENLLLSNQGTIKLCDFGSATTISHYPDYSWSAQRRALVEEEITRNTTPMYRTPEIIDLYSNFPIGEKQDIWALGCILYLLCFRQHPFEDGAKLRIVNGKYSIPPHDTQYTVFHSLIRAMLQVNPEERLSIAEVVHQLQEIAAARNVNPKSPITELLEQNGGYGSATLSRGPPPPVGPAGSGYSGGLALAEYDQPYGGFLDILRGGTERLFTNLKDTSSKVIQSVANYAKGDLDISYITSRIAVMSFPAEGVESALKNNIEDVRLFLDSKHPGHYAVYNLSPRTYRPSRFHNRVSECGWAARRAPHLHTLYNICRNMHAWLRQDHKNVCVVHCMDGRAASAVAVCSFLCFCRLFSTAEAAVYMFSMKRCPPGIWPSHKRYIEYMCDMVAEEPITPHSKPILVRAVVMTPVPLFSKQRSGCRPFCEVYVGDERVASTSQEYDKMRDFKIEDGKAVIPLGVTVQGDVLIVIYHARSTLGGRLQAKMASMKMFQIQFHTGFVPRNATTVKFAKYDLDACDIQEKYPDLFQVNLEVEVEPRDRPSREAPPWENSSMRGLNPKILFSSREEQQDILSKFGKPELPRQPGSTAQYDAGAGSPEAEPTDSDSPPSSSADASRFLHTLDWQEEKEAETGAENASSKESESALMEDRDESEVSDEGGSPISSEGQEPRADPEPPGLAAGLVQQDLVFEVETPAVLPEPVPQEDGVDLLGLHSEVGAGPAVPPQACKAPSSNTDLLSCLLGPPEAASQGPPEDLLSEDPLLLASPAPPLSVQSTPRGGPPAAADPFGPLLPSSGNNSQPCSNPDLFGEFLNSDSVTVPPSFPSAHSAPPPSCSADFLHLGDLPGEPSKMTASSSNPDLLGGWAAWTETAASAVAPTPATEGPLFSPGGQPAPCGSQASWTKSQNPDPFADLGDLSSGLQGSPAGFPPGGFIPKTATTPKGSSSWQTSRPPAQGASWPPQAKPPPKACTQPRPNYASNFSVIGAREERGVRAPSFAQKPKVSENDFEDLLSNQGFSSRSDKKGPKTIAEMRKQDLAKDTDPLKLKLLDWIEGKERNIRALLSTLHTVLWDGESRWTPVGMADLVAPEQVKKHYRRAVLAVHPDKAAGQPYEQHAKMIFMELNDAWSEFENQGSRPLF
Description: Induction of stabilization of recombinant GAK (unknown origin) assessed as change in melting temperature by differential scanning fluorimetry assay

Assay [5] concerns the target Fibroblast growth factor receptor 1 (Homo sapiens, UniProt P11362).
Description: Induction of stabilization of recombinant FGFR1 (unknown origin) assessed as change in melting temperature by differential scanning fluorimetry assay
For assay [6], the target named is Ephrin type-A receptor 5 (Homo sapiens) (UniProt P54756).
Sequence of Ephrin type-A receptor 5 (Homo sapiens) (P54756 whole entry): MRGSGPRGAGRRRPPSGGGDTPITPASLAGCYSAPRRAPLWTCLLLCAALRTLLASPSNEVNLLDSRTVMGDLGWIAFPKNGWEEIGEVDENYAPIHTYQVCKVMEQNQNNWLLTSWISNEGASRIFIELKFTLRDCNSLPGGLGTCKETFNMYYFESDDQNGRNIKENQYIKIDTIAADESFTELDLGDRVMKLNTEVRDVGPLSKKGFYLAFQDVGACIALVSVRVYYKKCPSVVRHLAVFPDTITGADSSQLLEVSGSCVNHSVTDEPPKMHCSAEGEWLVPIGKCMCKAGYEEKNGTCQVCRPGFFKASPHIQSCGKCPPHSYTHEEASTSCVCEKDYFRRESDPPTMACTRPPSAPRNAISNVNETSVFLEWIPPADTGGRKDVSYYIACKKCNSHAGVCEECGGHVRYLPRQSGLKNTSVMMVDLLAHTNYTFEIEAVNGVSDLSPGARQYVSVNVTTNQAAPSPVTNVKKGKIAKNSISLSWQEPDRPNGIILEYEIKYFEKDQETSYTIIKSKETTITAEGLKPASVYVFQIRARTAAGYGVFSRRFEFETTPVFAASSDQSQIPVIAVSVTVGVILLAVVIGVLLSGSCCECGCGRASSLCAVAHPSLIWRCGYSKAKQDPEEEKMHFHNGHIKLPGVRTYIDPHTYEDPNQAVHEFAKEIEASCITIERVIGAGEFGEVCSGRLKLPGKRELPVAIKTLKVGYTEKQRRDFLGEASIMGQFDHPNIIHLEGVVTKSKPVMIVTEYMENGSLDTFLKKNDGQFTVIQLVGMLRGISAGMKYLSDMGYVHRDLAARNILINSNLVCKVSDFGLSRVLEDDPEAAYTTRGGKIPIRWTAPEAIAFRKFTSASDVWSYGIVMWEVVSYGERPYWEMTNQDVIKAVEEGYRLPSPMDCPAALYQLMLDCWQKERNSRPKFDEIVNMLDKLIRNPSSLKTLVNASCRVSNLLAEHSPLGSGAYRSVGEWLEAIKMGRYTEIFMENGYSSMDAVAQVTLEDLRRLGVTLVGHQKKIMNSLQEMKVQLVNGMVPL
Description: Induction of stabilization of recombinant EPHA5 (unknown origin) assessed as change in melting temperature by differential scanning fluorimetry assay
Assay [7] has as its target T3, Ephrin type-B receptor 3 (Homo sapiens) (UniProt P54753).
T3 sequence (whole entry): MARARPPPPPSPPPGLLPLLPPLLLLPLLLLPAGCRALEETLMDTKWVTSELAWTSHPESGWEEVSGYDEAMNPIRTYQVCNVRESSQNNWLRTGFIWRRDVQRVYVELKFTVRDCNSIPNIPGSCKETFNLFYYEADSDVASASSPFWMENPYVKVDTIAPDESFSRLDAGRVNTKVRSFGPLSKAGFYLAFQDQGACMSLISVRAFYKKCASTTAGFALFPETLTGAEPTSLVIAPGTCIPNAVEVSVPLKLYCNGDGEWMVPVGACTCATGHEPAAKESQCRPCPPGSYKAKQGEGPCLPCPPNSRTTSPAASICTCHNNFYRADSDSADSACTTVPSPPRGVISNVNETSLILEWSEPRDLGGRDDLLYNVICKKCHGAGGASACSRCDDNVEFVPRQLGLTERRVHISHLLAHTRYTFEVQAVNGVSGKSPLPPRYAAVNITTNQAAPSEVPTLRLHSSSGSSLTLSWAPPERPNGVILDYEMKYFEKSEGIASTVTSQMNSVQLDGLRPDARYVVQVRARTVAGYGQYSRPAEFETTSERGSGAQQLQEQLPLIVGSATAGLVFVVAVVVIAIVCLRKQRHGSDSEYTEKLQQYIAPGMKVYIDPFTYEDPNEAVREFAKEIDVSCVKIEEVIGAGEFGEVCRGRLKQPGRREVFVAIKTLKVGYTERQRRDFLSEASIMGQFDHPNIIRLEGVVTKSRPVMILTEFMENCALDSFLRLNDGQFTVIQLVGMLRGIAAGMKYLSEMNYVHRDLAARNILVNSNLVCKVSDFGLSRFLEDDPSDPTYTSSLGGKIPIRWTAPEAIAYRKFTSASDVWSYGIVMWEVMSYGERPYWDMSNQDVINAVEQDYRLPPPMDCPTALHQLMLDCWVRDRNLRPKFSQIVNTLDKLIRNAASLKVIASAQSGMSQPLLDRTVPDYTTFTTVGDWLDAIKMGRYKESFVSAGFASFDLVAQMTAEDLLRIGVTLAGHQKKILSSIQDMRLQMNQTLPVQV
As to the kind of experiment: Induction of stabilization of recombinant EPHB3 (unknown origin) assessed as change in melting temperature by differential scanning fluorimetry assay.

The target of assay [8] is Fibroblast growth factor receptor 2 (Homo sapiens) (UniProt P21802).
Sequence of Fibroblast growth factor receptor 2 (Homo sapiens) (P21802 22-821 limits assumed): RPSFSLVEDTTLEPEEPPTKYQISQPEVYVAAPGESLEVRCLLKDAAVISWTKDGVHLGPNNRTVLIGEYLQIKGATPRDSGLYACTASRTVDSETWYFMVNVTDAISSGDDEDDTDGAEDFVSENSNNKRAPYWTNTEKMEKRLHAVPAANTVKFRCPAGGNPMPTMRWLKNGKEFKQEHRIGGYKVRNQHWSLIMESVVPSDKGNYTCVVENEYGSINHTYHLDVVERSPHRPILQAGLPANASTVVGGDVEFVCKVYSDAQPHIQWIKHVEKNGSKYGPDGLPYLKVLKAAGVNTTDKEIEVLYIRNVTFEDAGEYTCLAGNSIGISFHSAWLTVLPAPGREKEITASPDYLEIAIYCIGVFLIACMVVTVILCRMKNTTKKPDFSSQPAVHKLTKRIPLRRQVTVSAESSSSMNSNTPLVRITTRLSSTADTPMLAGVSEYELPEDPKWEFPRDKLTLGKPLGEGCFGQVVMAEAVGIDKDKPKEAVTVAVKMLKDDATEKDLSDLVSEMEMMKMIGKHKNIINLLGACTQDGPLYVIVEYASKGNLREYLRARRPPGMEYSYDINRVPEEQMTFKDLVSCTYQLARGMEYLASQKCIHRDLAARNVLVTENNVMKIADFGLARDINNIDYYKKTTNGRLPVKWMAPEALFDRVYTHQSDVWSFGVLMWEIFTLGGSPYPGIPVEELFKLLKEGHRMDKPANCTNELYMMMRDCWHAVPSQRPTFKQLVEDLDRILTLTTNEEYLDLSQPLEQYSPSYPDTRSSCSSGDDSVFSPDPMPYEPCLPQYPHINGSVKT
Description: Induction of stabilization of recombinant FGFR2 (unknown origin) assessed as change in melting temperature by differential scanning fluorimetry assay
A further assay concerns the target Ephrin type-A receptor 4 (Homo sapiens, UniProt P54764). Put plainly: Induction of stabilization of recombinant EPHA4 (unknown origin) assessed as change in melting temperature by differential scanning fluorimetry assay.

Sequence of Vascular endothelial growth factor receptor 1 (P17948 whole entry): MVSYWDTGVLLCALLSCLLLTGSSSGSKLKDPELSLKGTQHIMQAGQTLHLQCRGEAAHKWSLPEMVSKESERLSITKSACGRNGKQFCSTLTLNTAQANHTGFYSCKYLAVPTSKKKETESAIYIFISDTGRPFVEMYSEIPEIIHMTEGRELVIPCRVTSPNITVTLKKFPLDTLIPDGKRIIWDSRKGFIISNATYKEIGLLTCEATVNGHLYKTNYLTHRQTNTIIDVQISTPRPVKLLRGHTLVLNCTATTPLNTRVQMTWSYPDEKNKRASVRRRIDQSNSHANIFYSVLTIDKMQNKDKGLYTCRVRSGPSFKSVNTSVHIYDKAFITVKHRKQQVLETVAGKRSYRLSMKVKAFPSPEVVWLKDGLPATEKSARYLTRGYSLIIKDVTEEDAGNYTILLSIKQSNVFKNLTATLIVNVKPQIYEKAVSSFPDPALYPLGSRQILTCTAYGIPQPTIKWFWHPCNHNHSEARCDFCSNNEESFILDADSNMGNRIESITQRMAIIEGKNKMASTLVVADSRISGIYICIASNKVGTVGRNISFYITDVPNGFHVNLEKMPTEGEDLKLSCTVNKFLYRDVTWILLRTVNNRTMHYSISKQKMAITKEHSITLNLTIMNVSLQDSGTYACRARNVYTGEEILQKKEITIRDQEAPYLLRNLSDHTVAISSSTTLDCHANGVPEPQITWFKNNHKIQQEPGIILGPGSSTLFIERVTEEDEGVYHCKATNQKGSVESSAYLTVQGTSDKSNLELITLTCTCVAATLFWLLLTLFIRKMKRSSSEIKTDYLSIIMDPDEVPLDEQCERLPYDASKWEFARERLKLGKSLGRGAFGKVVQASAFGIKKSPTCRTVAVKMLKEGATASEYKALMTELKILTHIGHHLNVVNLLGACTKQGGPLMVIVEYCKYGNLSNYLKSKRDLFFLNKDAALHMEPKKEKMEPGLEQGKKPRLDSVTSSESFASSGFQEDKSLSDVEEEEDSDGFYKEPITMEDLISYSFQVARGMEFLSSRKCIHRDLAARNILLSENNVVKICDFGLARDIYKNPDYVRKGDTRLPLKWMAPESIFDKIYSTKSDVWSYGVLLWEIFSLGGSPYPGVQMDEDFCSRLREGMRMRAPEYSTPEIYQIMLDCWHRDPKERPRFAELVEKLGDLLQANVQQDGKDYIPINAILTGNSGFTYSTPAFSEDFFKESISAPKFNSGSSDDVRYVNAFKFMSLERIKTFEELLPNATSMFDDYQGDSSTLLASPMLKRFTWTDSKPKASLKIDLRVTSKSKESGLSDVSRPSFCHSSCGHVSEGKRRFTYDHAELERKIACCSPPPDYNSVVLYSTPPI
Sequence of Ephrin type-A receptor 4 (P54764 whole entry): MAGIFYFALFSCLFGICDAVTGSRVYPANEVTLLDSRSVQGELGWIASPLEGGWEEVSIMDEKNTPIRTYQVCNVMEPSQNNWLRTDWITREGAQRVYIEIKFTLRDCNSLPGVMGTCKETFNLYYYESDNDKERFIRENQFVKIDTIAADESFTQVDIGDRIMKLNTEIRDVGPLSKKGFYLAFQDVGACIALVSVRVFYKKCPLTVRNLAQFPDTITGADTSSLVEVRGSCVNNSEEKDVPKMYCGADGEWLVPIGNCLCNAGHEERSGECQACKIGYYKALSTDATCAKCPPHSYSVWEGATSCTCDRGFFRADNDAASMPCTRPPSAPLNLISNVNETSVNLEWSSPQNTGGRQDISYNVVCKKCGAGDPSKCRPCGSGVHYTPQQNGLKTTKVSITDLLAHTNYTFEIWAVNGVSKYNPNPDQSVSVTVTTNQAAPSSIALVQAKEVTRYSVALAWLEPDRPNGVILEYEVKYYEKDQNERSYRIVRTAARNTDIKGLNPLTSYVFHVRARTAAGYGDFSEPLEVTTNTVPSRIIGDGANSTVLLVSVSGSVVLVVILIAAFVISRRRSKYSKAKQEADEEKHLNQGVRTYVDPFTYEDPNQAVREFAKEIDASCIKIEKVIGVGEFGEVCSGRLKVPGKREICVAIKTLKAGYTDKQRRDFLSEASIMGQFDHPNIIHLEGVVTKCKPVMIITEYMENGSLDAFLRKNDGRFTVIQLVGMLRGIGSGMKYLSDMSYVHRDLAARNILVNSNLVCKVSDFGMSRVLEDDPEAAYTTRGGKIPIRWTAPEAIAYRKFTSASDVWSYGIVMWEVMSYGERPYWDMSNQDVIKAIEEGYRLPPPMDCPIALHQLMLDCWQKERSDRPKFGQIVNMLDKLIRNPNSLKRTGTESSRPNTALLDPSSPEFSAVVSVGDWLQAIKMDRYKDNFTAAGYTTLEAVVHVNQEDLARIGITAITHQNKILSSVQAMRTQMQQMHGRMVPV
Sequence of Fibroblast growth factor receptor 1 (P11362 22-822 limits assumed): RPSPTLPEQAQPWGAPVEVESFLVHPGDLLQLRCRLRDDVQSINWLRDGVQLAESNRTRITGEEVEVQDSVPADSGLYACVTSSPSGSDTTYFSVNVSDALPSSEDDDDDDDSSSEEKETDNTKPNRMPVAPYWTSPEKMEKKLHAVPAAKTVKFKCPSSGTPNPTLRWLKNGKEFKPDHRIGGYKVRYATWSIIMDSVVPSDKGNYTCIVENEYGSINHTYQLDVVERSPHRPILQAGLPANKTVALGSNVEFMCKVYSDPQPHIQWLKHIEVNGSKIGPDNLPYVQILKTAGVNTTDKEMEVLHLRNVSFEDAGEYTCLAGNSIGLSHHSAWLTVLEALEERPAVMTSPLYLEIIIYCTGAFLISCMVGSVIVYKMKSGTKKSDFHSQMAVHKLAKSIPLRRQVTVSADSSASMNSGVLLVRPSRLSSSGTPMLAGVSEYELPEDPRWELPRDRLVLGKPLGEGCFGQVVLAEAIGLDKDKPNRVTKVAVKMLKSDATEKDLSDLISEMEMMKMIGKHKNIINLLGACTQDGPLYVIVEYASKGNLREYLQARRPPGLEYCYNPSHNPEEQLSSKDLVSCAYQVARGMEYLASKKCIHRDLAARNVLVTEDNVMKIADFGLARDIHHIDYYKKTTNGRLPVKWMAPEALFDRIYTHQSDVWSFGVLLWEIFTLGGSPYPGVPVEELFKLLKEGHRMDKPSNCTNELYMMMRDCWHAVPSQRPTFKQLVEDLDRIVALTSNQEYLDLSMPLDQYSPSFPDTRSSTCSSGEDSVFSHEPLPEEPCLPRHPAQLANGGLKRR
Description for Ephrin type-A receptor 2: Induction of stabilization of recombinant EPHA2 (D596 to G900 residues) (unknown origin) expressed in Escherichia coli rosetta BL21(D3)-R3-pRARE2 competent cells assessed as change in melting temperature by differential scanning fluorimetry assay

In the case of `O=S1(=O)NCCCNc2nc(ncc2-c2cc(Cl)c(F)cc2F)Nc2cccc1c2`, the deltaTm in assay [1] came to 4.3 K; at Ephrin type-A receptor 2, 7.5 K; in assay [2], 3.3 K; in assay [3] it was 0.1 K; in assay [4], 5.8 K; in [5] it was 3.1 K. Further, the deltaTm was 5.7 K in assay [6], 4.3 K in assay [7], 4.7 K in assay [8] and 3.2 K at Ephrin type-A receptor 4.
Regarding `COc1cc(-c2cnc3nc2NCCCNS(=O)(=O)c2cc(ccc2OCC(N)=O)N3)ccc1F`, the deltaTm in assay [1] amounted to 0.8 K; at Ephrin type-A receptor 2 it was 3.5 K; in assay [2], 1.5 K; in [3], 0.7 K; in assay [4] it was 6.3 K; in [5], 0.7 K. The deltaTm in [6] turned out to be 3.9 K; in assay [7], 2.5 K; in [8], 1.5 K; at Ephrin type-A receptor 4, 2.3 K.
`COc1ccc(-c2cnc3nc2NCCCNS(=O)(=O)c2cccc(c2)N3)cc1OC`: the deltaTm in assay [1] is 4.1 K; on Ephrin type-A receptor 2, 4.6 K; in assay [2] it was 0.6 K; in assay [3], 0.8 K; in [4], 6.1 K; in [5], 2.3 K. Also, the deltaTm in [6] was determined as 2.1 K; in [7], 1.4 K; in assay [8] it was 3.3 K; on Ephrin type-A receptor 4, 1.4 K.
On to `COc1cc(-c2cnc3nc2NCCCNS(=O)(=O)c2cc(ccc2Cl)N3)ccc1F`, for which the deltaTm in assay [1] is 2.4 K; on Ephrin type-A receptor 2, 6.3 K; in assay [2] it was 2.5 K; in assay [3] it was 1.6 K; in assay [4] it was 8.1 K; in [5] it was 1.9 K. The deltaTm in [6] turned out to be 5 K; in assay [7], 1.6 K; in [8] it was 3.6 K; on Ephrin type-A receptor 4 it was 5.1 K.
As to `CC(C)Oc1cc(-c2cnc3nc2NCCCNS(=O)(=O)c2cccc(c2)N3)ccc1F`, the deltaTm was 2.1 K in assay [1]; 0.7 K on Ephrin type-A receptor 2; 0 K in assay [2]; 0.6 K in assay [3]; 1.6 K in assay [4]; 1 K in assay [5]. Also, the deltaTm in [6] was 0.2 K; in assay [7], 3.4 K; in assay [8], 1.5 K; at Ephrin type-A receptor 4, 0.7 K.
Turning to `COC(=O)COc1ccc2cc1S(=O)(=O)NCCCNc1nc(ncc1-c1ccc(F)c(OC)c1)N2`, the deltaTm turned out to be 0.3 K in assay [1]; 2.4 K at Ephrin type-A receptor 2; 1 K in assay [2]; 0.4 K in [3]; 3.7 K in [4]; 0.5 K in [5]. Moreover, the deltaTm in [6] was found to be 2.3 K; in [7], 1.4 K; in [8], 1.3 K; at Ephrin type-A receptor 4 it was 1.6 K.
With `O=S1(=O)NCCCNc2nc(ncc2-c2cccc(Cl)c2F)Nc2cccc1c2`, the deltaTm in assay [1] was determined as 6 K; at Ephrin type-A receptor 2 it was 7 K; in [2] it was 3.1 K; in assay [3], 1.8 K; in [4], 5.3 K; in assay [5] it was 4 K. The deltaTm in assay [6] came out at 4.6 K; in assay [7], 3.7 K; in [8], 5.3 K; on Ephrin type-A receptor 4, 3.4 K.
For `Cc1cc(Cl)c(Cl)cc1-c1cnc2nc1NCCCNS(=O)(=O)c1cccc(c1)N2`, the deltaTm was 2.7 K in assay [1]; 6.2 K on Ephrin type-A receptor 2; 3.2 K in [2]; 0.5 K in assay [3]; 4.9 K in [4]; 2.4 K in assay [5]. Moreover, the deltaTm was determined as 3.5 K in [6], 0 K in assay [7], 3.6 K in assay [8] and 2.6 K at Ephrin type-A receptor 4.
Consider `O=S1(=O)NCCCNc2nc(ncc2-c2ccc(F)c(O)c2)Nc2cccc1c2`, for which the deltaTm in assay [1] is 10.7 K; on Ephrin type-A receptor 2, 7.8 K; in [2] it was 4 K; in [3] it was -2 K; in assay [4], 6.4 K; in [5], 4.9 K. Further, the deltaTm in assay [6] stood at 4.1 K; in assay [7] it was 3 K; in assay [8] it was 6.5 K; at Ephrin type-A receptor 4 it was 2.9 K.
